Test [1] has as its system breast cancer cell line. The experiment in a line: Antioxidant activity. Type of test: cell-based. The following applies: against a breast cancer cell line.
Test [2] relates to breast cancer cell line. The experiment in a line: Anti-cancer activity, breast cancer cell line. Type of test: cell-based, human.
Test [3] has as its system Colon carcinoma cells (HCT-116 cell line). The experiment in a line: Anti-cancer activity, colon carcinoma cells. Type of test: cell-based.
The test system of another test is Aspergillus flavus. The experiment in a line: Antifungal activity, Aspergillus flavus (inhibition zone and MIC). The following applies: Aspergillus flavus fungi. Type of test: cell-based.
A further test relates to Microccus luteus. The experiment in a line: Antimicrobial activity, Microccus luteus (inhibition zone and MIC). It counts as cell-based.
The test system of another test is E. coli. The test can be described thus: Antimicrobial activity, E. coli (inhibition zone and MIC). It counts as cell-based. To be noted: E. coli bacteria.
Where [4] appears, read: Homo sapiens, read-out: IC50 (anticancer activity).

Converted amounts (≈) assume the structure as drawn. Like-named read-outs stand apart in the source and are kept apart here.

As for `O=C1O[C@H]([C@@H](O)CO)C(O)=C1O` [1-ascorbic acid, reference compound], the “IC50 (antioxidant activity)” value with breast cancer cell line [1] worked out at 55.2 µg/mL (≈ 313 µM).
The term IC50 denotes the concentration that gives 50% inhibition. As for `CC[C@]1(O)C[C@@H]2CN(CCc3c([nH]c4ccccc34)[C@@](C(=O)OC)(c3cc4c(cc3OC)N(C)[C@H]3[C@@](O)(C(=O)OC)[C@H](OC(C)=O)[C@]5(CC)C=CCN6CC[C@]43[C@@H]65)C2)C1` [vinblastine, reference compound], the half-inhibitory concentration (IC50) was found to be 5.2 µg/mL (≈ 6.41 µM) with breast cancer cell line [2] (setting [4]) and 5.41 µg/mL (≈ 6.67 µM) in test [3] (setting [4]).
For orientation: MIC means the lowest concentration found to suppress growth. As for “5,10,15,20-Tetrakis (4-hydroxyphenyl)-Porphyrins Pd(II) complex [prepared complex]”, the MIC turned out to be 1.75 µg/mL against Aspergillus flavus, 0.75 µg/mL against Microccus luteus and 1.5 µg/mL against E. coli. Further, the inhibition zone with Aspergillus flavus was 23.25 mm; with Aspergillus flavus (listed as present complex) it was “about 23.25 mm”; in the test on Microccus luteus, 41.5 mm; with Microccus luteus (listed as present complex), “about 41.5 mm”; with E. coli (listed as prepared nano complex), 33 mm; in the test on E. coli (listed as present complex) it was “about 33 mm”. Besides, the results for the “IC50 (anticancer activity)” value (with breast cancer cell line [2]; in test [3]) were 4.5 µg/mL and 4.9 µg/mL, respectively. Also, in the test on breast cancer cell line [1], the “IC50 (antioxidant activity)” value is 10.5 µg/mL.
In the case of `CC1COc2c(N3CCN(C)CC3)c(F)cc3c(=O)c(C(=O)O)cn1c23` (stereo not drawn) [Ofloxacin, reference compound], the results for the inhibition zone in the test with Microccus luteus and in the test on E. coli were 39.75 mm and 30 mm, respectively. Further, the MIC with Microccus luteus (read-out: MIC) came out at 1.25 µg/mL (≈ 3.46 µM); in the test on E. coli (Escherichia coli, read-out: MIC), 2.25 µg/mL (≈ 6.23 µM).
Turning to `OC(Cn1cncn1)(Cn1cncn1)c1ccc(F)cc1F` [Fluconazol, reference compound], the inhibition zone in the test on Aspergillus flavus worked out at 22.00 mm. In addition, the MIC in the test with Aspergillus flavus (read-out: MIC) was 2.5 µg/mL (≈ 8.16 µM).

These data come from patent US11873306B1, “Nano-sized 5,10,15,20-tetrakis (4-hydroxyphenyl)-porphyrins pd(II) complex for super medicinal applications” (KING FAISAL UNIVERSITY, priority 2023, dated 2024).
